Results as given in patent US20160309717A1, “Compounds with Nematicidal Activity” (BAYER CROPSCIENCE AKTIENGESELLSCHAFT, priority 2013, published 2016).

Columns and labels:
[1] = Measurement of log P values by HPLC on reversed phase columns (EEC directive 79/831 Annex V.A8); format: physicochemical; settings: for LogP [b] / chromatographic logP: LC-MS at pH 2.7, 0.1% formic acid in water / acetonitrile; for LogP [c]: LC-MS at pH 7.8, 0.001 molar ammonium hydrogen carbonate in water / acetonitrile; for chromatographic logP: reversed phase HPLC column, read-out: LogP [b]
Experimental: Measurement of Log P-Values:
Measurement of log P values was performed according EEC directive 79/831 Annex V.A8 by HPLC (High Performance Liquid Chromatography) on reversed phase columns with the following methods:
^[a] Measurement was done at pH 2.3 with 0.1% phosphoric acid and acetonitrile as eluent with a linear gradient from 10% acetonitrile to 95% acetonitrile.
^[b]measurement of LC-MS was done at pH 2.7 with 0.1% formic acid in water and with acetonitrile (contains 0.1% formic acid) as eluent with a linear gradient from 10% acetonitrile to 95% acetonitrile.
^[c] Measurement with LC-MS was done at pH 7.8 with 0.001 molar ammonium hydrogen carbonate solution in water as eluent with a linear gradient from 10% acetonitrile to 95% acetonitrile.
Calibration was done with not branched alkan2-ones (with 3 to 16 carbon atoms) with known log P-values (measurement of log P values using retention times with linear interpolation between successive alkanones). Lambda-maX-values were determined using UV-spectra from 200 nm to 400 nm and the peak values of the chromatographic signals.

Meloidogyne incognita = Meloidogyne incognita test, gall formation on salad seedlings in sand; format: in vivo; settings: application rate 20 ppm; after 14 days; 100% = no galls found
Experimental: Solvent: 125.0 Parts by Weight of Acetone
To produce a suitable preparation of active compound, 1 part by weight of active compound is mixed with the stated amount of solvent, and the concentrate is diluted with water to the desired concentration.
Vessels are filled with sand, a solution of the active ingredient, a suspension containing eggs and larvae of the southern root-knot nematode (Meloidogyne incognita) and salad seeds. The salad seeds germinate and the seedlings grow. Galls develop in the roots.
After 14 days the nematicidal activity is determined on the basis of the percentage of gall formation. 100% means no galls were found and 0% means the number of galls found on the roots of the treated plants was equal to that in untreated control plants.

Cooperia curticei = Cooperia curticei test (COOPCU), larval mortality
Experimental: (§1) Solvent: Dimethyl Sulfoxide
(§2) To produce a suitable preparation of active compound, 10 mg of active compound are dissolved in 0.5 ml solvent, and the concentrate is diluted with “Ringer's solution” to the desired concentration.
Approximately 40 nematode larvae (Cooperia curticei) are transferred into a test tube containing the compound solution.
After 5 days percentage of larval mortality is recorded. 100% efficacy means all larvae are killed; 0% efficacy means no larvae are killed.

Haemonchus contortus = experiment: microbe, parasite or virus in culture; settings: 120 h, read-out: activity (percentage of larval mortality)
Experimental: as §1, §2
Approximately 40 larvae of the red stomach worm (Haemonchus contortus) are transferred into a test tube containing compound solution.
After 5 days percentage of larval mortality are recorded. 100% efficacy means all larvae are killed, 0% efficacy means no larvae are killed.

SMILES | LogP [b] [1] | LogP [c] [1] | other results
O=C(NCC1(c2ccc(Br)cn2)CC1)c1ccccc1I [Example 8] | 3,1 | 3,09 | 
O=C(NCC1(c2cccc(Cl)n2)CC1)c1cccnc1Cl [Example 5] | ^[b]2,11 ^[c]2,11 | ^[b]2,11 ^[c]2,11 | 
O=C(NCC1(c2ncc(Br)cc2Cl)CC1)c1cccnc1C(F)(F)F [Example 14, N-{[1-(5-bromo-3-chloropyridin-2-yl)cyclopropyl]methyl}-2-(trifluoromethyl)nicotinamide] |  |  | chromatographic logP [1]: 2.88
O=C(NCC1(c2ccc(Cl)cn2)CC1)c1ccccc1C(F)(F)F [Example 15] | 2,91 | 2,96 | nematicidal activity on the basis of the percentage of gall formation (Meloidogyne incognita): 70%; activity (percentage of larval mortality) (Cooperia curticei; application rate 20 ppm, after 5 days, 100% = all larvae killed): 90%
O=C(NCC1(c2ccc(Br)cn2)CC1)c1c(F)cccc1F [Example 9] | ^[b]2,71 ^[c]2,71 | ^[b]2,71 ^[c]2,71 | 
O=C(NCC1(c2ccc(Br)cn2)CC1)c1ccccc1C(F)(F)F [Example 7] | ^[b]3,1 ^[c]3,1 | ^[b]3,1 ^[c]3,1 | 
O=C(NCC1(c2ccc(Br)cn2)CC1)c1cccnc1Cl [Example 11] | 2,17 | 2,18 | 
O=C(NCC1(c2ccc(Br)cn2)CC1)c1cccnc1C(F)(F)F [Example 10] | 2,51 | 2,5 | nematicidal activity on the basis of the percentage of gall formation (Meloidogyne incognita): 90%
O=C(NCC1(c2cccc(Cl)n2)CC1)c1ccccc1C(F)(F)F [Example 4] | 3 | 2,99 | 
O=C(NCC1(c2cccc(Cl)n2)CC1)c1cccnc1C(F)(F)F [Example 1] | 2,42 | 2,41 | 
O=C(NCC1(c2cccc(Cl)n2)CC1)c1c(F)cccc1F [Example 2] | 2,63 | 2,62 | 
Cn1cc(C(=O)NCC2(c3cccc(Cl)n3)CC2)c(C(F)F)n1 [Example 6] | 2,25 | 2,24 | 
O=C(NCC1(c2cccc(Cl)n2)CC1)c1ccccc1I [Example 3] | 2,98 | 2,96 | 
Cn1cc(C(=O)NCC2(c3ncc(C(F)(F)F)cc3Cl)CC2)c(C(F)F)n1 [Example 13, N-[[1-[3-chloro-5-(trifluoromethyl)-2-pyridyl]cyclopropyl]methyl]-3-(difluoromethyl)-1-methyl-pyrazole-4-carboxamide] |  |  | nematicidal activity on the basis of the percentage of gall formation (Meloidogyne incognita): 100%; mortality at 20 ppm (Cooperia curticei; Cooperia curticei, 120 h, read-out: activity (percentage of larval mortality)): 100%; chromatographic logP [1]: 2.63; mortality at 20 ppm (Haemonchus contortus): 80%
Cn1cc(C(=O)NCC2(c3ccc(Br)cn3)CC2)c(C(F)F)n1 [Example 12] | 2,31 | 2,33 | 
